Experimental data reported in patent US20130338092A1, “COMPOUNDS AND METHODS FOR TARGETING LEUKEMIC STEM CELLS” (The Broad Institute, Inc., priority 2011, published 2013).
pIC50: −log10 of the molar value.

Key:
[1] = system: normal primary human CD34+ cells; test: Alamar Blue assay for human progenitor cell toxicity; settings: for pIC50: Homo sapiens, 168 h, read-out: Normal Progenitor* IC50
Experimental: Normal G-CSF mobilized CD34+ cells (AllCells, LLC, Emeryville, Calif.), normal BM CD34 cells (MSKCC, New York, N.Y.) and cord blood CD34+ cells (New York Blood Center, New York) were previously frozen and thawed out before the proliferation assay was set up in 384-well plates. Briefly, 50 μl of IMDM medium containing 20% FBS (Gemini Bio-Product, West Sacramento, Calif.), 20 ng/ml of recombinant human Kit Ligand (rhKL), 20 ng/ml of rh-Interleukin-3 (rhIL-3), 20 ng/ml of rhG-CSF, 6 units/ml of rhEPO, 10-42-mercaptoethanol, 2 mM glutamine, 50 u/ml penicillin, 50 μg/ml streptomycin, 1,000 viable CD34+ cells in the presence of various doses of Broad compounds (drug-treated group) or 0.1% DMSO (control group) were incubated at 37° C. After 6 days, 5 μl of AlamaBlue (AbD Serotec, Raleigh, N.C.) was added to each well and further incubated overnight. The fluorescence signal was then measured with GeminiXS microplate reader (Molecular Devices, Sunnyvale, Calif.). Effect of small molecules to proliferation of CD34+ cells was reported as Relative fluorescent intensity (Relative Fluorescent Intensity=Fluorescent Intensity (drug-treated)/Fluorescent Intensity (Control).
Finally, experiments were performed to examine whether BRD7116 or lovastatic acid were likely to cause myelosuppression, a type of deleterious toxicity in patients resulting from harm to normal human hematopoietic progenitor cells. This consideration is especially important as conventional therapies currently used in the clinic have myelosuppressive toxicities that are dose-limiting. To this end, a hematopoietic progenitor assay was employed to compare the effects of BRD7116 and lovastatic acid to effects given by such known myelosuppressive compounds. In this assay, normal primary human CD34^+ cord blood cells were plated with cytokines in suspension, treated with compound for 7 days, and then examined for viability relative to DMSO treated controls.

[2] = system: human AML cell lines (U937, THP-1, NOMO-1, SKM-1, NB4, and OCI-AML3); test: AML cell line screen (CellTiter-Glo); type: cell-based
Experimental: Nomo-1, THP-1, SKM-1, NB4, and U937 cell lines were grown in RPMI (12-702F, BioWhittaker), 10% FBS (10082-147, Gibco), and 1% Pen-Strep (15140-122, Gibco) and OCI-AML3 was grown in α-MEM (36453, Stem Cell Technologies), 10% FBS (10082-147, Gibco), and 1% Pen-Strep (15140-122, Gibco). 3000 cells were plated in each well in 30 μl in white, 384 well plates (3570, Corning) and 16 hours later 100 nl of the appropriate compound was added to each well. 72 hours later the plates were cooled to room temperature and 30 μl of CellTiterGlo reagent (G7570, Promega) diluted 1:1 in PBS was added to each well and the plates were analyzed using an Envision (Perkin Elmer).
First, a traditional small molecule screen was performed on six human AML cell lines (U937, THP-1, NOMO-1, SKM-1, NB4, and OCI-AML3), two of which (NOMO-1, THP-1) contain the same oncogene (MLL-AF9) used to generate the primary leukemia cells utilized in our coculture system. The cell lines were grown in isolation under standard conditions, treated with the 160 compounds at 8-point dose, and three days later the viability of each well was quantified using CellTiter-Glo reagent. The IC50s from these AML cell line screens were then compared to the IC50s from the coculture screens. […] As discussed, the existence of such differentially-active compounds is consistent with our hypothesis that coculturing can expand the pool of therapeutically promising compounds identified in high throughput format.

dsRed+ LSCs = test: Syngeneic transplantation of compound-treated triple cocultures, leukemia onset / survival; type: in vivo, mice; settings: cocultures treated 48 hours ex vivo, then transplanted; vs DMSO
Experimental: Heterotypic cocultures containing dsRed+ LSCs, CD45.1+ HSPCs, and GFP+ MSCs were exposed to compounds for 48 hours, then transplanted en masse post trypsinization with untreated wild-type helper splenocytes (CD45.1+CD45.2+) into lethally irradiated, wildtype recipient animals (CD45.2+). Latency of leukemia onset was compared for mice receiving cocultures treated with compound compared to DMSO control treated cocultures. The engraftment of the normal HSPCs treated and injected along with the leukemia cells was quantified by FACs analysis of the bone marrow of mice alive at the 16 week endpoint across treatments.
As in vivo readouts may better reflect hematopoietic stem cell function compared to in vitro readouts (Purton, L. E., and Scadden, D. T. (2007). Cell Stem Cell 1, 263-270.; Bock, T. A. (1997). Stem Cells 15 Suppl 1, 185-195.), our results were confirmed using murine transplantation studies. […] Compounds that increase disease latency relative to DMSO control are considered active. […] Bone marrow repopulating ability is a functional measure of normal HSPCs, assessed by quantifying long-term engraftment and differentiation patterns in recipient mice (Bock, T. A. (1997). Stem Cells 15 Suppl 1, 185-195.; Nguyen, L. V., Vanner, R., Dirks, P., and Eaves, C. J. (2012). Nat Rev Cancer 12, 133-143.). […]

Row | SMILES | toxicity to hematopoietic progenitor cells [1] | pIC50 [1] | inhibition of AML cell lines at maximal doses ([2]; of the positive control) | inhibition of AML cell lines ([2]; relative to DMSO control, concentrations greater than 30 μM) | latency of leukemia onset / survival of recipient mice (dsRed+ LSCs) | activity against AML cell lines [2] | pIC50 ([2]; Homo sapiens, read-out: IC50 across the AML cell lines)
1 | CC1(C)C(C(=O)Nc2ccc(S(=O)(=O)c3ccc(NC(=O)C4C(C)(C)C4(C)C)cc3)cc2)C1(C)C [BRD7116] | minimal toxicity | 5.00 | 50% | roughly 50% | mild, but statistically significant prolonged latency of leukemia onset |  | 
2 | CCC(C)C(=O)OC1CC(C)C=C2C=CC(C)C(CCC(O)CC(O)CC(=O)O)C21 (stereo not shown) [Lovastatic acid] | minimal toxicity | 5.00 |  |  | survived substantially longer than the DMSO control group | only weak activity | < 5.00
